From PMC12155096 (International Journal of Molecular Sciences, 2025)
Counter-ions that a name gives are not always drawn. Like-named read-outs stand apart in the source and are kept apart here.

Key:
[1] = target: T1, human CYP1A2 (Homo sapiens, UniProt P05177); experiment: biochemical
T1 sequence (P05177 1-516): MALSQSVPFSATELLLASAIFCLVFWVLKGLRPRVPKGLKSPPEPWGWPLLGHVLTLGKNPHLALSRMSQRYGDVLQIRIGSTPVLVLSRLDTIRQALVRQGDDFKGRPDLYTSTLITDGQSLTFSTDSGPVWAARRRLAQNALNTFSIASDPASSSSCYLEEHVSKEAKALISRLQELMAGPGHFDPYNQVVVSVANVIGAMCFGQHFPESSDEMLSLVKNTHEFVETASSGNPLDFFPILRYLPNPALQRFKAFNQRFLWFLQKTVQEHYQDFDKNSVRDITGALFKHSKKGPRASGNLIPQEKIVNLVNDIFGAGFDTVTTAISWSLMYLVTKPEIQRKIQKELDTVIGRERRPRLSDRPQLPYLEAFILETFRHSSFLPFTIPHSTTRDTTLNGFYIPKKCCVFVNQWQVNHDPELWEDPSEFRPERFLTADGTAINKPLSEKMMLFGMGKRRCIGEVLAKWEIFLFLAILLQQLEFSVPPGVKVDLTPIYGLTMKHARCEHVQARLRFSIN

[2] = target: T2, human CYP2C19 (Homo sapiens, UniProt P33261); experiment: biochemical
T2 sequence (P33261 whole entry): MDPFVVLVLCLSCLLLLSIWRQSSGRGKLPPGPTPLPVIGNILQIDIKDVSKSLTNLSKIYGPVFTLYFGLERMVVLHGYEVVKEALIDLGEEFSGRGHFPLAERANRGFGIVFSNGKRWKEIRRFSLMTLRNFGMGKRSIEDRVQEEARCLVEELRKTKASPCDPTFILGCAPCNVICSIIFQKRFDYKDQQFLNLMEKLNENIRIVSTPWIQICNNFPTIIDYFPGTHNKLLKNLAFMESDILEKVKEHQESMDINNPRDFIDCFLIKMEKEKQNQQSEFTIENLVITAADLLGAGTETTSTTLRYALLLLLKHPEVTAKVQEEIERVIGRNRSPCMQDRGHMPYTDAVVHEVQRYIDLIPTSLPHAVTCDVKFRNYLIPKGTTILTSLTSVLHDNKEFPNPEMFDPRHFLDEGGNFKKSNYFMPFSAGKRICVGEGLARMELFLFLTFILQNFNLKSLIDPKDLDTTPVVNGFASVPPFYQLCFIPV

[3] = target: T3, human CYP2C9 (Homo sapiens, UniProt P11712); experiment: biochemical
T3 sequence (P11712 whole entry): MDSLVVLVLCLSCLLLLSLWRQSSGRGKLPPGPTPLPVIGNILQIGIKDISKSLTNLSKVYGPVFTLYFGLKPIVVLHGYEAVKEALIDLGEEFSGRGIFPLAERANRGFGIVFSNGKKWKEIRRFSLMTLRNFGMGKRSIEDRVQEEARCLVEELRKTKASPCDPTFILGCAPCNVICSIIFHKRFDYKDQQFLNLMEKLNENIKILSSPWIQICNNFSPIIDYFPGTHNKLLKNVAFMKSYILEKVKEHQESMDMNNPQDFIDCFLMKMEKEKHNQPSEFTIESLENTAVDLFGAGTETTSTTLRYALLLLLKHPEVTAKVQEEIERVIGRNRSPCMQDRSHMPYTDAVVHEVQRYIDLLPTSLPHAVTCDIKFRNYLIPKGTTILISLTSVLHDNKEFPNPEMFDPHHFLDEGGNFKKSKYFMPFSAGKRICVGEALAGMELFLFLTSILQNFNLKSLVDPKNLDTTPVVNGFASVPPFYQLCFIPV

[4] = target: T3, human CYP2C9
[5] = target: T2, human CYP2C19
[6] = target: T1, human CYP1A2
[7] = target: human CYP2D6 (Homo sapiens, UniProt P10635)
Chain of human CYP2D6 (P10635 whole entry): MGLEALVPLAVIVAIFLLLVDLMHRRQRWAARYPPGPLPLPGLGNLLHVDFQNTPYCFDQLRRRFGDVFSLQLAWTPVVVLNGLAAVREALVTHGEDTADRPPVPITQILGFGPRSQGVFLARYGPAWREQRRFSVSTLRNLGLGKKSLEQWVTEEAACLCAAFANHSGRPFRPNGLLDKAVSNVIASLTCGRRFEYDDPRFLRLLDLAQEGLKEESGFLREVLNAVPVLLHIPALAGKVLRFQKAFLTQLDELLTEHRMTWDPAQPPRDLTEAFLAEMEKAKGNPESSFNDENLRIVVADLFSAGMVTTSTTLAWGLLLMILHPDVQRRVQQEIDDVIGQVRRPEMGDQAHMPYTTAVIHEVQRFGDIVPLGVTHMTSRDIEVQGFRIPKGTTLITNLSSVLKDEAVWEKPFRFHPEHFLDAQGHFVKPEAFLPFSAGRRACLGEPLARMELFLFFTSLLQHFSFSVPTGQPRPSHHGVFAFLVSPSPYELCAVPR

[8] = target: CYP3A4 (Homo sapiens, UniProt P08684)
Chain of CYP3A4 (P08684 whole entry): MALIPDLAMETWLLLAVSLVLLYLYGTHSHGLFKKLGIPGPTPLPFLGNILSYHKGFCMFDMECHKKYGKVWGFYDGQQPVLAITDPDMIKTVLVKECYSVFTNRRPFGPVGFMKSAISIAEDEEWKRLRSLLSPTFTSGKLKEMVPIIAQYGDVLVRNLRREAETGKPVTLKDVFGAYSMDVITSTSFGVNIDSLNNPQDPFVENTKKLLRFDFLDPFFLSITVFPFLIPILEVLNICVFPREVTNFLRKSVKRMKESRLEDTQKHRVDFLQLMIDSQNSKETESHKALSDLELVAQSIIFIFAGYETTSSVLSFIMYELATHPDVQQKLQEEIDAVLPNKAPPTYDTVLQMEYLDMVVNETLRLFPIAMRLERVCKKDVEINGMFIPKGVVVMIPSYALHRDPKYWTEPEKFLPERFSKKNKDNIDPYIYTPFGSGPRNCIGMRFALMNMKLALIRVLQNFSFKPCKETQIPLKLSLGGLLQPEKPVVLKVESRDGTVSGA

[9] = CYP2C19 AC50 (half-maximal activity concentration)
[10] = CYP2C9 AC50 (half-maximal activity concentration)
[11] = CYP1A2 AC50 (half-maximal activity concentration)
[12] = CYP2C19 IC50 (half-maximal inhibitory concentration)
[13] = CYP2C9 IC50 (half-maximal inhibitory concentration)
[14] = CYP1A2 IC50 (half-maximal inhibitory concentration)

CC(c1cc2ccccc2s1)N(O)C(N)=O (centres unmarked) [zileuton, reference compound] gave an IC50 [1] of 5.3 µM.
CN(C)C(=S)SC(=S)N(C)C [Tetramethylthiuram monosulfide] gave an AC50 [2, 9] of 22.8 µM, an AC50 [3, 10] of 24.3 µM and an AC50 [1, 11] of 41.9 µM.
With Cc1c(Cl)cccc1Nc1ccccc1C(=O)O [Tolfenamic acid] the AC50 [3, 10] was 21 µM and the AC50 [1, 11] was 34.8 µM.
Molecule CC(C)OC(=O)C(C)(C)Oc1ccc(C(=O)c2ccc(Cl)cc2)cc1 [Fenofibrate] has an AC50 [3, 10] of 3.17 µM and an AC50 [1, 11] of 19.9 µM.
In the case of O=C(Nc1ccc(Cl)c(Cl)c1)C1CC1 [Cypromid], the IC50 [2, 12] is reported as 12.1 µM, the IC50 [3, 13] is reported as 25.3 µM and the IC50 [1, 14] is reported as 0.54 µM. For the same molecule, the “CYP2C9 Efficacy (in parenthesis)” value ([4]; human) was 25.27 ± 7.04 (-70 ± 11) %, the “CYP2C19 Efficacy (in parenthesis)” value ([5]; human) was 12.07 ± 3.02 (-106 ± 21) % and the “CYP1A2 Efficacy (in parenthesis)” value ([6]; human) was 0.54 ± 0.08 (-97 ± 6) %.
Work on O=C(O)Cc1sc(-c2ccccc2)nc1-c1ccc(Cl)cc1 [Fentiazac] yielded an AC50 [3, 10] of 6.24 µM and an AC50 [1, 11] of 24 µM.
In the case of Cresyl diphenyl phosphate, the “CYP2D6 AC50 (half-maximal activity concentration)” value (from here on “CYP2D6 AC50”) [7] is reported as “Inactive”, the AC50 [4] is reported as 6.19 µM and the AC50 [5] is reported as 4.18 µM. The AC50 [6] was 8.9 µM.
For Cc1cc(C)nc(NS(=O)(=O)c2ccc(N)cc2)n1 [Sulfamethazine], the AC50 [3, 10] was 54.8 µM, the “CYP2D6 AC50” value [7] was “Inactive” and the “CYP3A4 AC50 (half-maximal activity concentration)” value [8] was “Inactive”. For the same molecule, the “CYP2C19 AC50 (half-maximal activity concentration)” value [5] was “Inactive” and the “CYP1A2 AC50 (half-maximal activity concentration)” value [6] was “Inconclusive inhibitor”.
Work on Fc1ccc([C@@H]2CCNC[C@H]2COc2ccc3c(c2)OCO3)cc1 [paroxetine, reference compound] yielded an IC50 [1, 14] of 15.2 µM.
In the case of CCC(OC(C)=O)C(CC(C)NC)(c1ccccc1)c1ccccc1.Cl (centres unmarked), the “CYP2D6 Efficacy (in parenthesis)” value [7] is reported as 15.52 ± 2.14 (-95 ± 2) %, the IC50 [7] is reported as 15.5 µM and the “CYP2C9 Efficacy (in parenthesis)” value [4] is reported as 63.02 ± 38.37 (-35 ± 6) %. The IC50 [4] was 63 µM, the “CYP2C19 Efficacy (in parenthesis)” value [5] was 21.99 ± 10.33 (-95 ± 7) % and the IC50 [5] was 22 µM.
O=C(c1ccccc1)c1ccccc1 [Benzophenone] showed an AC50 [3, 10] of 28.4 µM and an AC50 [1, 11] of 13.7 µM.
Work on CCc1oc2ccccc2c1C(=O)c1cc(Br)c(O)c(Br)c1 [Benzbromarone] yielded an AC50 [1, 11] of 28.9 µM.
In the case of O=C(Nc1ccc(S(=O)(=O)N2CCOCC2)cc1)c1cc(Cl)ccc1NS(=O)(=O)c1ccc(Cl)s1 [Ataciguat], the IC50 [2] is reported as 41.3 ± 3.36 µM, the IC50 [3] is reported as 0.05 ± 0.01 µM and the “CYP2C9 Efficacy (in parenthesis)” value ([4]; human) is reported as 0.05 ± 0.01 (-98 ± 7) %. The “CYP2C19 Efficacy (in parenthesis)” value ([5]; human) was 41.28 ± 3.36 (-131 ± 15) %.
CCCOC(=O)c1cncn1C(C)c1ccccc1 (centres unmarked) [Propoxate] was tested, and the IC50 [2, 12] was 3.09 µM, the IC50 [3, 13] was 13.3 µM and the IC50 [1, 14] was 18.9 µM.
CCCCCNC(=N)N/N=C/c1c[nH]c2ccc(OC)cc12 [Tegaserod maleate] showed an AC50 [3] of 33.3 ± 14 µM and an AC50 [1] of 4.12 ± 0.93 µM.
For C[C@]12CC[C@@H]3c4ccc(O)cc4CC[C@H]3[C@@H]1CC[C@@H]2OC(=O)CCC1CCCC1 [Estradiol cypionate], the AC50 [2, 9] was 26 µM, the AC50 [3, 10] was 16.1 µM and the AC50 [1, 11] was 16.6 µM.
Molecule O=C(OCc1ccccc1)c1ccccc1 [Benzyl benzoate] has an AC50 [2, 9] of 21.3 µM, an AC50 [3, 10] of 27.7 µM and an AC50 [1, 11] of 14.9 µM.
Work on Brc1ccccc1-c1ccccc1 [2-Bromobiphenyl] yielded an AC50 [1, 11] of 17 µM.
In the case of Cc1cc(O)c(Cl)c(C)c1Cl [2,4-Dichloro-3,5-dimethylphenol], the AC50 [2] is reported as 71.9 µM, the AC50 [3] is reported as 9.3 µM and the “CYP2D6 AC50” value [7] is reported as “Inactive”. It also gave an AC50 [1] of 14.4 µM.
With NS(=O)(=O)c1cc2c(cc1Cl)NCNS2(=O)=O [Hydrochlorothiazide] the “CYP2D6 AC50” value [7] was “Inactive”, the “CYP3A4 AC50 (half-maximal activity concentration)” value [8] was “Inactive” and the “CYP2C19 AC50 (half-maximal activity concentration)” value [5] was “Inactive”.
With COc1c2occc2cc2ccc(=O)oc12 [8-Methoxypsoralen] the IC50 [3, 13] was 7.56 µM, the “CYP2D6 Efficacy (in parenthesis)” value ([7]; human) was 7.42 ± 0.95 (-106 ± 2) % and the “CYP2C9 Efficacy (in parenthesis)” value ([4]; human) was 7.56 ± 2.14 (-95 ± 11) %. The “CYP2C19 Efficacy (in parenthesis)” value ([5]; human) was 12.67 ± 4.61 (-156 ± 24) %.
